Source: BindingDB's records for PubMed 8474008 (Virginia Commonwealth University, 1993)
Where “and” joins values, the source holds several entries; their conditions need not be identical. Equal values may be shown once.

The compounds below were run against Cannabinoid receptor 1 (Rattus norvegicus, UniProt P20272).
Sequence of Cannabinoid receptor 1 (P20272 whole entry): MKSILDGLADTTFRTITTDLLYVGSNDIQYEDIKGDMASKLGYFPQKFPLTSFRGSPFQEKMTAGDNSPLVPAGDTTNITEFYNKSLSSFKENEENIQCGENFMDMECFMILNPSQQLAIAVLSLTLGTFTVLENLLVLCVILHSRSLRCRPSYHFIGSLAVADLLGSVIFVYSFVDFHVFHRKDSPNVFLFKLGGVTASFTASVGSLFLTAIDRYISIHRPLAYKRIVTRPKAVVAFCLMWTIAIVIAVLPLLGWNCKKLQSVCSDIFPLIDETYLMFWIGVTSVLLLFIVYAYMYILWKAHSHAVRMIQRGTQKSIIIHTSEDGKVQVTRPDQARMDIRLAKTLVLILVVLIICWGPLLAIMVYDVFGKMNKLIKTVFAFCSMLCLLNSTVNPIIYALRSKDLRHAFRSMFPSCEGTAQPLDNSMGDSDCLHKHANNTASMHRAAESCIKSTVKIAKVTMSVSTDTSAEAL
`CCCCC[C@@H](C)[C@H](C)c1cc(O)c2c(c1)OC(C)(C)[C@@H]1CC=C(C)C[C@@H]21` showed a Ki of 1.59 nM. `CCCCCCC(C)(C)c1cc(O)c2c(c1)OC(C)(C)[C@@H]1CCC(CO)=CC21` (stereo partly specified) [(3-(1,1-Dimethyl-heptyl)-9-hydroxymethyl-6,6-dimethyl-6a,7,8,10a-tetrahydro-6H-benzo[c]chromen-1-ol (HU210)] showed a Ki of 126 nM. `CCCCCCC(C)(C)c1cc(O)c2c(c1)OC(C)(C)[C@@H]1CCC(=O)C[C@@H]21` [(6aR,10aR)-3-(1,1-Dimethyl-heptyl)-1-hydroxy-6,6-dimethyl-6,6a,7,8,10,10a-hexahydro-benzo[c]chromen-9-one] showed a Ki of 22.3 nM. Compound `CCCC(C)(C)c1ccc([C@H]2CCC[C@@H](O)C2)c(O)c1` [Bicyclic analogs III] has a Ki of 3760 nM. For `CCC(C)(C)c1ccc([C@H]2CCC[C@@H](O)C2)c(O)c1` [Bicyclic analogs II], the Ki was over 10000 nM. With `CCCCC(C)(C)c1ccc([C@H]2CCC[C@@H](O)C2)c(O)c1` [Bicyclic analogs IV] the Ki was 9.54 nM. `CCCCCCCCCC(C)(C)c1ccc([C@H]2CCC[C@@H](O)C2)c(O)c1` [Bicyclic analogs IX] showed a Ki of 163 nM. `CC(C)(C)c1ccc([C@H]2CCC[C@@H](O)C2)c(O)c1` [Bicyclic analogs I] was tested, and the Ki was over 10000 nM. `CCCCCCCCC(C)(C)c1ccc([C@H]2CCC[C@@H](O)C2)c(O)c1` [Bicyclic analogs VIII] gave a Ki of 28.5 nM. Work on `CCCCCCCC(C)(C)c1ccc([C@H]2CCC[C@@H](O)C2)c(O)c1` [Bicyclic analogs VII] yielded a Ki of 4.73 nM. With `CCCCCC(C)(C)c1ccc([C@H]2CCC[C@@H](O)C2)c(O)c1` [Bicyclic analogs V] the Ki was 126 nM. `OCCC[C@@H]1CC[C@@H](O)C[C@H]1c1ccccc1O` [Bicyclic analogs XIII] gave a Ki of over 10000 nM. With `CCCCCCC(C)(C)c1ccc([C@@H]2C[C@H](O)CC[C@H]2C)c(O)c1` [Bicyclic analogs XI] the Ki was 6.15 nM and 7.7 nM. Compound `CCCCCCC(C)(C)c1ccc([C@@H]2C[C@H](O)CC[C@H]2CCCCO)c(O)c1` [Bicyclic analogs XVI] has a Ki of 1.55 nM. With `CCCCCCCCCCC(C)(C)c1ccc([C@H]2CCC[C@@H](O)C2)c(O)c1` [Bicyclic analogs X] the Ki was 381 nM. In the case of `CCCCCCC(C)(C)c1ccc([C@H]2CCC[C@@H](O)C2)c(O)c1` [CP-47,497], the Ki is reported as 735 nM. For `CCCCCC(C)C(C)c1cc(O)c2c(c1)OC(C)(C)C1=C2CC(C)CC1` (stereo unspecified) [DMHP, 1', 2'], the Ki was 1.56 nM. In the case of `CCCCCc1cc(O)c2c(c1)OC(C)(C)C1CCC(C)(O)CC21` (stereo unspecified) [NSC_169742], the Ki is reported as 124 nM and 171 nM. `C=C(C)C1CCC(C)=CC1c1c(O)cc(O)cc1CCCCC` (stereo unspecified) [NSC_3060519] gave a Ki of over 10000 nM. Compound `CCCCCc1cc(OCCCN)c2c(c1)OC(C)(C)[C@@H]1CCC(C)=C[C@@H]21` [THC, 1-O-(3-Aminopropyl)] has a Ki of over 10000 nM. In the case of `CCCCCc1cc(OCCCCN)c2c(c1)OC(C)(C)[C@@H]1CCC(C)=C[C@@H]21` [THC, 1-O-(4-Aminobutyl)], the Ki is reported as over 10000 nM. `CCCCCc1cc(OCCCCCCN)c2c(c1)OC(C)(C)[C@@H]1CCC(C)=C[C@@H]21` [THC, 1-O-(6-Aminohexyl)] showed a Ki of 1730 nM. `CCCCCc1cc(OC(N)=O)c2c(c1)OC(C)(C)[C@@H]1CCC(C)=C[C@@H]21` [THC, 1-O-Carbamoyl] showed a Ki of over 10000 nM. For `C=C1CC[C@@H]2[C@@H](C1)c1c(OC)cc(CCC(CC)CCC)cc1OC2(C)C` (stereo partly specified) [THC, 1-O-Methyl-3-(norpentyl)-3-propyl], the Ki was over 10000 nM. `CCCCCCC(C)(C)c1cc(OCc2ccc(-c3ccccc3)cc2)c2c(c1)OC(C)(C)[C@@H]1CCC(CO)=C[C@@H]21` [THC, 1-O-biphenylmethyl-delta 8] gave a Ki of over 10000 nM. For `C=C1CC[C@@H]2[C@@H](C1)c1c(OC)cc(CCCCC)cc1OC2(C)C` [THC, 1-O-methyl-delta 9,11], the Ki was 827 nM. `CCCCCc1cc(OC)c2c(c1)OC(C)(C)[C@@H]1CCC(C)=C[C@@H]21` [THC, 1-O-methyl-delta 9] gave a Ki of over 10000 nM. Work on `C=C1CC[C@@H]2[C@@H](C1)c1c(O)cc(CCC(CC)CCC)cc1OC2(C)C` (stereo partly specified) [THC, 3-(Norpentyl)-3-propyl] yielded a Ki of 968 nM. Compound `CC1=C[C@H]2c3c(O)cc(CCCCCBr)cc3OC(C)(C)[C@@H]2CC1` [THC, 5'-Br] has a Ki of 7.63 nM. Compound `CC1=C[C@H]2c3c(O)cc(CCCCC(F)(F)F)cc3OC(C)(C)[C@@H]2CC1` [THC, 5'-F3] has a Ki of 19.9 nM. Compound `CC1=C[C@H]2c3c(O)cc(CCCCCF)cc3OC(C)(C)[C@@H]2CC1` [THC, 5'-F] has a Ki of 57 nM. `CC1=C[C@H]2c3c(O)cc(CCCCCI)cc3OC(C)(C)[C@@H]2CC1` [THC, 5'-I] gave a Ki of 7.77 nM. Work on `CC1=C[C@H]2c3c(O)cc(CCCCCO)cc3OC(C)(C)[C@@H]2CC1` [THC, 5'-OH] yielded a Ki of 87.6 nM. For `CCCCCc1cc(O)c2c(c1)OC(C)(C)[C@@H]1C[C@@H](O)C(C)=C[C@@H]21` [THC, 8 beta-OH], the Ki was 820 nM. `CCCCCc1cc(O)c2c(c1)OC(C)(C)[C@@H]1CCC(C(=O)O)=C[C@@H]21` [THC, 9-Nor-9-carboxy-delta 9] gave a Ki of over 10000 nM. For `CCCCCc1cc(OC)c2c(c1)OC(C)(C)[C@@H]1CCC(CF)=C[C@@H]21` [THC, 11-F], the Ki was 107 nM. `CC1(C)Oc2cc(CCCCC[N+](C)(C)C)cc(O)c2[C@@H]2C=C(CO)CC[C@H]21` [THC, 11-OH-5'-TMA] was tested, and the Ki was 2110 nM. Work on `CCCCCc1cc(O)c2c(c1)OC(C)(C)[C@@H]1CCC(CO)=C[C@@H]21` [THC, 11-OH-delta 9] yielded a Ki of 38.4 nM. In the case of `CCCCCc1cc(OC(C)C)c2c(c1)OC(C)(C)[C@@H]1CCC(C)=C[C@@H]21` [THC, O, 2-propano], the Ki is reported as over 10000 nM. `CCCCCc1cc(O)c2c(c1)OC(C)(C)[C@@H]1CCC(C)=C(CO)[C@@H]21` [THC, O, 10-Methano] showed a Ki of over 10000 nM. Compound `CCCCCCC(C)(C)c1cc(O)c2c(c1)OC(C)(C)[C@H]1CCC(CO)=C[C@H]21` [THC-DMH, (-)-11-OH] has a Ki of 0.72 nM.
